Laboratory results taken from US7741283B2, “Compositions and methods for inhibiting cell proliferation” (St. Louis University, priority 2003, dated 2010).
Entries after “also recorded” stand apart in the source; their conditions may differ.

What was measured:
MEF cells [1] = experiment: Internalization and degradation of cell surface-bound 125I-ligand, MEF cells; type: cell-based, mouse; conditions: for Cell surface-bound ligand internalized and degraded: MEF
[2] = test system: cell surface α2M* receptors; conditions: 30 μM, reversible; cited from earlier work
Mv1Lu cells [3] = experiment: Internalization and degradation of cell surface-bound 125I-TGF-β1 or 125I-α2M*, Mv1Lu cells; type: cell-based, mink; conditions: 10 μM, pH 7.4, 1 hr at 37° C.
Experimental: After 1 hr at 37° C., the medium was collected and precipitated with 10% trichloroacetic acid (TCA). The TCA-soluble radioactive material in the medium represented the cellular degradation products of 125I-TGF-β1 or 125I-α2M*. The cells were then treated with trypsin (5 mg/ml), maintained for 20 min at 0° C. and centrifuged. The radioactivity in the supernate and cell pellets represented cell surface-bound and internalized 125I-TGF-β1 or 125I-α2M*, respectively. The experiments were performed in quadruplicate.
After 2.5 hr, cells were washed, then warmed to 37° C.

acidic pH binding sites [4] = molecular target: T1, acidic pH binding sites (Mus musculus, UniProt P14824); experiment: Specific binding of 125I-ligands to MEF cells at acidic pH; conditions: MEF cells
T1 sequence (P14824 2-673): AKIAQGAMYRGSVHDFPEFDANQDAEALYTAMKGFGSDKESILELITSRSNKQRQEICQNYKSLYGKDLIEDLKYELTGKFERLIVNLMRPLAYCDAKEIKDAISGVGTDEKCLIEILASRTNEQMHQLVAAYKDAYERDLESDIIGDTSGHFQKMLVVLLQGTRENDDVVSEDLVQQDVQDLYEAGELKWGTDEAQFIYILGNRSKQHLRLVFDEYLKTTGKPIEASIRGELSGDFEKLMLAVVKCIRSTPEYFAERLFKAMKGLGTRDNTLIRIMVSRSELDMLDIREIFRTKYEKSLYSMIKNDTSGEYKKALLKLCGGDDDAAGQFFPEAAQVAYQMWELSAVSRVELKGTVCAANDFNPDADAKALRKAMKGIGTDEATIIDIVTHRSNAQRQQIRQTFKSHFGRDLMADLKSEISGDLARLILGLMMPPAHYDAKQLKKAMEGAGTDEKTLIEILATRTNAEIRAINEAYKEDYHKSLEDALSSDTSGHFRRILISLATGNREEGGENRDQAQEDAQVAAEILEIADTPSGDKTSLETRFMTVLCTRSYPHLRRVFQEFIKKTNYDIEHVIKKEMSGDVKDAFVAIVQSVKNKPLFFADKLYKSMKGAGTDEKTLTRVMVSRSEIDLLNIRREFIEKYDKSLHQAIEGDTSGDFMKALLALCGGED

LRP-1 = molecular target: T2, LRP-1 (Mus musculus, UniProt Q91ZX7); experiment: 125I-α2M* binding to MEF cells at pH 7.4; conditions: pH 7.4; read-out: IC50, inhibition of ^125I-α2M* binding to LRP-1
T2 construct: endogenous in cells; host or cells: MEF (mouse embryonic fibroblasts)

PEA-C11 cells [5] = experiment: Cell growth (cell number), PEA-C11 cells; type: cell-based, mink; conditions: TGF-β1 20 pM, PEA-C11, 4-day
Experimental: (§1) FIG. 6 depicts the effects of IGFBP-3 and TGF-β1 on DNA synthesis (A), cell growth (B) and PAI-1 expression (C) in Mv1Lu and PEA-C11 cells. (A,B) Cells were incubated with various concentrations of IGFBP-3 (a) or TGF-β1 (b) as indicated. DNA synthesis and cell growth were determined by measuring the [methyl-^3H] thymidine incorporation into cellular DNA after 18 hr incubation (A) and by counting cell number after a 4-day incubation (B), respectively. The [methyl-^3H] thymidine incorporation in cells treated without IGFBP-3 and TGF-β1 (29,170±1,657 and 59,947±7,692 cpm/well for Mv1Lu and PEA-C11 cells, respectively) were taken as 0% inhibition. […] Each data point is the mean±S.D. of quadruplicate determinations. […] Data are representative of eight similar experiments. (C) Cells were incubated with various concentrations of TGF-β1 as indicated. After 2 hr at 37° C., the PAI-1 expression was determined by Northern blot analysis. The expression of glyceraldehyde-3-phosphate dehydrogenase (G3PDH) was used as control. The relative levels of the transcripts were quantified by a Phospholmager. Data are representative of four similar experiments.
(§2) Cells were plated at a density of 1-2×10^4 cells/dish in DMEM containing 1% fetal calf serum. The cell number was counted every day or after a 3-day incubation using a hematocytometer. The assays were performed in quadruplicate.

32D/IR/IRS-2 cells = experiment: [methyl-3H] thymidine incorporation, 32D/IR/IRS-2 cells; type: cell-based, murine; conditions: 32D cells expressing IRS-2 and insulin receptor
Mv1Lu cells [6] = experiment: Cell growth (cell number), Mv1Lu cells; type: cell-based, mink; conditions: TGF-β1 20 pM, 4-day
Experimental: as §1, §2

acidic pH binding sites [7] = molecular target: T1, acidic pH binding sites; experiment: Specific binding of 125I-ligands to PEA-13 cells at acidic pH; parameters: endogenous in cells; host or cells: PEA-13 (LRP-1-deficient mouse embryonic fibroblasts); conditions: PEA-13 cells
32D/IRS-1 cells = experiment: [methyl-3H] thymidine incorporation, 32D/IRS-1 cells; type: cell-based, murine; conditions: 32D cells expressing IRS-1
PEA-C11 cells [8] = experiment: [methyl-3H] thymidine incorporation, PEA-C11 cells; type: cell-based, mink; conditions: TGF-β1 20 pM
MEF cells [9] = experiment: Cell growth (cell number), MEF cells; type: cell-based, mouse; conditions: TGF-β1 20 pM
Experimental: (§3) FIG. 7 depicts the effect of TGF-β1 on DNA synthesis (A), cell growth (B) and PAI-1 expression (C) in MEF and PEA-13 cells. (A) Cells were treated with various concentrations of TGF-β1 as indicated. DNA synthesis was determined by measuring [methyl-^3H] thymidine incorporation into cellular DNA. The [methyl-^3H] thymidine incorporation in cells treated without TGF-β1 (100,861±3,720 and 103,262±6,722 cpm/well for MEF and PEA-13 cells, respectively) was taken as 0% inhibition. The negative values of inhibition indicate mitogenic activity. […] Each datapoint is the mean±S.D. of quadruplicate determinations. […] Data are representative of six similar experiments. (B) Cells were treated with various concentrations of TGF-β1 as indicated. The cell number was counted after a 4 day incubation. […] The negative values of the inhibition indicate the growth stimulatory activity. Each datapoint is the mean±S.D. of quadruplicate determinations. […] Data are representative of four similar experiments. (C) Cells were treated with various concentrations of TGF-β1 as indicated. The PAI-1 expression in these cells was determined by Northern blot analysis. […] The relative levels of the transcripts were quantified by a PhosphoImager. […]
(§4) Cells were plated at a density of 1-2×10^4 cells/dish in DMEM containing 1% fetal calf serum. The cell number was counted every day or after a 3-day incubation using a hematocytometer. […]

H1299/vector cells [10] = experiment: [methyl-3H] thymidine incorporation, H1299/vector cells; type: cell-based, human; conditions: various concentrations
PEA-13 cells [11] = experiment: [methyl-3H] thymidine incorporation, PEA-13 cells; type: cell-based, mouse; conditions: TGF-β1 20 pM
Experimental: (§5) FIG. 7 depicts the effect of TGF-β1 on DNA synthesis (A), cell growth (B) and PAI-1 expression (C) in MEF and PEA-13 cells. (A) Cells were treated with various concentrations of TGF-β1 as indicated. DNA synthesis was determined by measuring [methyl-^3H] thymidine incorporation into cellular DNA. The [methyl-^3H] thymidine incorporation in cells treated without TGF-β1 (100,861±3,720 and 103,262±6,722 cpm/well for MEF and PEA-13 cells, respectively) was taken as 0% inhibition. The negative values of inhibition indicate mitogenic activity. […] Each datapoint is the mean±S.D. of quadruplicate determinations. […] Data are representative of six similar experiments. (B) Cells were treated with various concentrations of TGF-β1 as indicated. The cell number was counted after a 4 day incubation. […] The negative values of the inhibition indicate the growth stimulatory activity. Each datapoint is the mean±S.D. of quadruplicate determinations. […] Data are representative of four similar experiments. (C) Cells were treated with various concentrations of TGF-β1 as indicated. The PAI-1 expression in these cells was determined by Northern blot analysis. The expression of G3PDH was used as control. The relative levels of the transcripts were quantified by a PhosphoImager. Data are representative of four similar experiments. […]

IRS-2 [12] = experiment: 32P metabolic labeling and immunoprecipitation of IRS-2, Mv1Lu cells; type: cell-based, mink; conditions: Mv1Lu; IGFBPs 1 μg/ml; TGF-β1 20 pM
H1299/LRP cells [13] = experiment: Cell growth (cell number), H1299/LRP cells; type: cell-based, human; conditions: TGF-β1 20 pM or IGFBP-3 1 μg/ml, 3-day
IRS-2 [14] = experiment: 32P metabolic labeling and immunoprecipitation of IRS-2, DR26 cells; type: cell-based, mink
Mv1Lu cells [15] = experiment: [methyl-3H] thymidine incorporation (DNA synthesis), Mv1Lu cells; type: cell-based, mink; conditions: Mv1Lu
MEF cells [16] = experiment: [methyl-3H] thymidine incorporation, MEF cells; type: cell-based, mouse; conditions: TGF-β1 20 pM
Experimental: as §5

[17] = test system: 32D cells expressing vector only; experiment: [methyl-3H] thymidine incorporation, 32D cells transfected with vector only; type: cell-based, murine
H1299/LRP cells [18] = experiment: [methyl-3H] thymidine incorporation, H1299/LRP cells; type: cell-based, human; conditions: various concentrations
H1299/vector cells [19] = experiment: Cell growth (cell number), H1299/vector cells; type: cell-based, human; conditions: TGF-β1 20 pM or IGFBP-3 1 μg/ml, 3-day
LRP-1/TβR-V = LRP-1/TβR-V (Homo sapiens, UniProt Q07954); conditions: pH 7.4; read-out: Kd for (high affinity) binding to LRP-1/TβR-V; cited from earlier work
PEA-13 cells [20] = experiment: Cell growth (cell number), PEA-13 cells; type: cell-based, mouse; conditions: TGF-β1 20 pM
Experimental: as §3, §4

acidic pH binding sites [21] = molecular target: acidic pH binding sites (Neogale vison, UniProt A0A8C7BSJ2); experiment: Specific binding of 125I-ligands to Mv1Lu cells at acidic pH; parameters: species or system mink; conditions: Mv1Lu cells; for pH of optimal/maximal binding: EGTA/BAPTA- or GST-RAP-sensitive binding, 0° C.
[22] = test system: TβR-V purified from bovine liver plasma membranes; experiment: 125I-IGFBP-3 / 125I-TGF-β1 affinity labeling of purified TβR-V; type: binding; conditions: DSS, β1^25(41-65) 20 μM, RAP 10-40 μg/ml, α2M* 100 nM, lactoferrin 100 nM
PEA-13 cells [23] = experiment: Internalization and degradation of cell surface-bound 125I-α2M*, PEA-13 cells; type: cell-based, mouse; conditions: PEA-13, pH 6.0, 1 hr at 37° C.

Chain of acidic pH binding sites (Neogale vison, UniProt A0A8C7BSJ2) (A0A8C7BSJ2 entry or part of it): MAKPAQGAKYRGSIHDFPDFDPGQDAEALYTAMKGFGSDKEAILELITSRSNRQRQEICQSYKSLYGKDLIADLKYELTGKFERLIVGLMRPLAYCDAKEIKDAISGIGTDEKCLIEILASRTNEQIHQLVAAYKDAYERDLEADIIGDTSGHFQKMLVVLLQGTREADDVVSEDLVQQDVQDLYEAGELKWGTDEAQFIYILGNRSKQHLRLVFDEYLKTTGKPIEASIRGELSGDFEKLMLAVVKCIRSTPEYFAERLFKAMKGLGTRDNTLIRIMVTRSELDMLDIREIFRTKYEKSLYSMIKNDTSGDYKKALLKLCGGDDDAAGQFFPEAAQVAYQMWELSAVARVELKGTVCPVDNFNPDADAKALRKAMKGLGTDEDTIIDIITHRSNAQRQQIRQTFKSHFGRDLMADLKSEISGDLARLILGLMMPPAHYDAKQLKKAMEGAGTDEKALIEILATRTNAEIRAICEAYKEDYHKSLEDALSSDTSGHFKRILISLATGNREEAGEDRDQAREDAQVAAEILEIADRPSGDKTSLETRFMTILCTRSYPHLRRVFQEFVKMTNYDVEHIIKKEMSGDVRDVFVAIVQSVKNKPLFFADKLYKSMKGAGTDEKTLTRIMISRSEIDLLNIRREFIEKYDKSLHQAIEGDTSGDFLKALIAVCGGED
Chain of LRP-1/TβR-V (Q07954 20-4544): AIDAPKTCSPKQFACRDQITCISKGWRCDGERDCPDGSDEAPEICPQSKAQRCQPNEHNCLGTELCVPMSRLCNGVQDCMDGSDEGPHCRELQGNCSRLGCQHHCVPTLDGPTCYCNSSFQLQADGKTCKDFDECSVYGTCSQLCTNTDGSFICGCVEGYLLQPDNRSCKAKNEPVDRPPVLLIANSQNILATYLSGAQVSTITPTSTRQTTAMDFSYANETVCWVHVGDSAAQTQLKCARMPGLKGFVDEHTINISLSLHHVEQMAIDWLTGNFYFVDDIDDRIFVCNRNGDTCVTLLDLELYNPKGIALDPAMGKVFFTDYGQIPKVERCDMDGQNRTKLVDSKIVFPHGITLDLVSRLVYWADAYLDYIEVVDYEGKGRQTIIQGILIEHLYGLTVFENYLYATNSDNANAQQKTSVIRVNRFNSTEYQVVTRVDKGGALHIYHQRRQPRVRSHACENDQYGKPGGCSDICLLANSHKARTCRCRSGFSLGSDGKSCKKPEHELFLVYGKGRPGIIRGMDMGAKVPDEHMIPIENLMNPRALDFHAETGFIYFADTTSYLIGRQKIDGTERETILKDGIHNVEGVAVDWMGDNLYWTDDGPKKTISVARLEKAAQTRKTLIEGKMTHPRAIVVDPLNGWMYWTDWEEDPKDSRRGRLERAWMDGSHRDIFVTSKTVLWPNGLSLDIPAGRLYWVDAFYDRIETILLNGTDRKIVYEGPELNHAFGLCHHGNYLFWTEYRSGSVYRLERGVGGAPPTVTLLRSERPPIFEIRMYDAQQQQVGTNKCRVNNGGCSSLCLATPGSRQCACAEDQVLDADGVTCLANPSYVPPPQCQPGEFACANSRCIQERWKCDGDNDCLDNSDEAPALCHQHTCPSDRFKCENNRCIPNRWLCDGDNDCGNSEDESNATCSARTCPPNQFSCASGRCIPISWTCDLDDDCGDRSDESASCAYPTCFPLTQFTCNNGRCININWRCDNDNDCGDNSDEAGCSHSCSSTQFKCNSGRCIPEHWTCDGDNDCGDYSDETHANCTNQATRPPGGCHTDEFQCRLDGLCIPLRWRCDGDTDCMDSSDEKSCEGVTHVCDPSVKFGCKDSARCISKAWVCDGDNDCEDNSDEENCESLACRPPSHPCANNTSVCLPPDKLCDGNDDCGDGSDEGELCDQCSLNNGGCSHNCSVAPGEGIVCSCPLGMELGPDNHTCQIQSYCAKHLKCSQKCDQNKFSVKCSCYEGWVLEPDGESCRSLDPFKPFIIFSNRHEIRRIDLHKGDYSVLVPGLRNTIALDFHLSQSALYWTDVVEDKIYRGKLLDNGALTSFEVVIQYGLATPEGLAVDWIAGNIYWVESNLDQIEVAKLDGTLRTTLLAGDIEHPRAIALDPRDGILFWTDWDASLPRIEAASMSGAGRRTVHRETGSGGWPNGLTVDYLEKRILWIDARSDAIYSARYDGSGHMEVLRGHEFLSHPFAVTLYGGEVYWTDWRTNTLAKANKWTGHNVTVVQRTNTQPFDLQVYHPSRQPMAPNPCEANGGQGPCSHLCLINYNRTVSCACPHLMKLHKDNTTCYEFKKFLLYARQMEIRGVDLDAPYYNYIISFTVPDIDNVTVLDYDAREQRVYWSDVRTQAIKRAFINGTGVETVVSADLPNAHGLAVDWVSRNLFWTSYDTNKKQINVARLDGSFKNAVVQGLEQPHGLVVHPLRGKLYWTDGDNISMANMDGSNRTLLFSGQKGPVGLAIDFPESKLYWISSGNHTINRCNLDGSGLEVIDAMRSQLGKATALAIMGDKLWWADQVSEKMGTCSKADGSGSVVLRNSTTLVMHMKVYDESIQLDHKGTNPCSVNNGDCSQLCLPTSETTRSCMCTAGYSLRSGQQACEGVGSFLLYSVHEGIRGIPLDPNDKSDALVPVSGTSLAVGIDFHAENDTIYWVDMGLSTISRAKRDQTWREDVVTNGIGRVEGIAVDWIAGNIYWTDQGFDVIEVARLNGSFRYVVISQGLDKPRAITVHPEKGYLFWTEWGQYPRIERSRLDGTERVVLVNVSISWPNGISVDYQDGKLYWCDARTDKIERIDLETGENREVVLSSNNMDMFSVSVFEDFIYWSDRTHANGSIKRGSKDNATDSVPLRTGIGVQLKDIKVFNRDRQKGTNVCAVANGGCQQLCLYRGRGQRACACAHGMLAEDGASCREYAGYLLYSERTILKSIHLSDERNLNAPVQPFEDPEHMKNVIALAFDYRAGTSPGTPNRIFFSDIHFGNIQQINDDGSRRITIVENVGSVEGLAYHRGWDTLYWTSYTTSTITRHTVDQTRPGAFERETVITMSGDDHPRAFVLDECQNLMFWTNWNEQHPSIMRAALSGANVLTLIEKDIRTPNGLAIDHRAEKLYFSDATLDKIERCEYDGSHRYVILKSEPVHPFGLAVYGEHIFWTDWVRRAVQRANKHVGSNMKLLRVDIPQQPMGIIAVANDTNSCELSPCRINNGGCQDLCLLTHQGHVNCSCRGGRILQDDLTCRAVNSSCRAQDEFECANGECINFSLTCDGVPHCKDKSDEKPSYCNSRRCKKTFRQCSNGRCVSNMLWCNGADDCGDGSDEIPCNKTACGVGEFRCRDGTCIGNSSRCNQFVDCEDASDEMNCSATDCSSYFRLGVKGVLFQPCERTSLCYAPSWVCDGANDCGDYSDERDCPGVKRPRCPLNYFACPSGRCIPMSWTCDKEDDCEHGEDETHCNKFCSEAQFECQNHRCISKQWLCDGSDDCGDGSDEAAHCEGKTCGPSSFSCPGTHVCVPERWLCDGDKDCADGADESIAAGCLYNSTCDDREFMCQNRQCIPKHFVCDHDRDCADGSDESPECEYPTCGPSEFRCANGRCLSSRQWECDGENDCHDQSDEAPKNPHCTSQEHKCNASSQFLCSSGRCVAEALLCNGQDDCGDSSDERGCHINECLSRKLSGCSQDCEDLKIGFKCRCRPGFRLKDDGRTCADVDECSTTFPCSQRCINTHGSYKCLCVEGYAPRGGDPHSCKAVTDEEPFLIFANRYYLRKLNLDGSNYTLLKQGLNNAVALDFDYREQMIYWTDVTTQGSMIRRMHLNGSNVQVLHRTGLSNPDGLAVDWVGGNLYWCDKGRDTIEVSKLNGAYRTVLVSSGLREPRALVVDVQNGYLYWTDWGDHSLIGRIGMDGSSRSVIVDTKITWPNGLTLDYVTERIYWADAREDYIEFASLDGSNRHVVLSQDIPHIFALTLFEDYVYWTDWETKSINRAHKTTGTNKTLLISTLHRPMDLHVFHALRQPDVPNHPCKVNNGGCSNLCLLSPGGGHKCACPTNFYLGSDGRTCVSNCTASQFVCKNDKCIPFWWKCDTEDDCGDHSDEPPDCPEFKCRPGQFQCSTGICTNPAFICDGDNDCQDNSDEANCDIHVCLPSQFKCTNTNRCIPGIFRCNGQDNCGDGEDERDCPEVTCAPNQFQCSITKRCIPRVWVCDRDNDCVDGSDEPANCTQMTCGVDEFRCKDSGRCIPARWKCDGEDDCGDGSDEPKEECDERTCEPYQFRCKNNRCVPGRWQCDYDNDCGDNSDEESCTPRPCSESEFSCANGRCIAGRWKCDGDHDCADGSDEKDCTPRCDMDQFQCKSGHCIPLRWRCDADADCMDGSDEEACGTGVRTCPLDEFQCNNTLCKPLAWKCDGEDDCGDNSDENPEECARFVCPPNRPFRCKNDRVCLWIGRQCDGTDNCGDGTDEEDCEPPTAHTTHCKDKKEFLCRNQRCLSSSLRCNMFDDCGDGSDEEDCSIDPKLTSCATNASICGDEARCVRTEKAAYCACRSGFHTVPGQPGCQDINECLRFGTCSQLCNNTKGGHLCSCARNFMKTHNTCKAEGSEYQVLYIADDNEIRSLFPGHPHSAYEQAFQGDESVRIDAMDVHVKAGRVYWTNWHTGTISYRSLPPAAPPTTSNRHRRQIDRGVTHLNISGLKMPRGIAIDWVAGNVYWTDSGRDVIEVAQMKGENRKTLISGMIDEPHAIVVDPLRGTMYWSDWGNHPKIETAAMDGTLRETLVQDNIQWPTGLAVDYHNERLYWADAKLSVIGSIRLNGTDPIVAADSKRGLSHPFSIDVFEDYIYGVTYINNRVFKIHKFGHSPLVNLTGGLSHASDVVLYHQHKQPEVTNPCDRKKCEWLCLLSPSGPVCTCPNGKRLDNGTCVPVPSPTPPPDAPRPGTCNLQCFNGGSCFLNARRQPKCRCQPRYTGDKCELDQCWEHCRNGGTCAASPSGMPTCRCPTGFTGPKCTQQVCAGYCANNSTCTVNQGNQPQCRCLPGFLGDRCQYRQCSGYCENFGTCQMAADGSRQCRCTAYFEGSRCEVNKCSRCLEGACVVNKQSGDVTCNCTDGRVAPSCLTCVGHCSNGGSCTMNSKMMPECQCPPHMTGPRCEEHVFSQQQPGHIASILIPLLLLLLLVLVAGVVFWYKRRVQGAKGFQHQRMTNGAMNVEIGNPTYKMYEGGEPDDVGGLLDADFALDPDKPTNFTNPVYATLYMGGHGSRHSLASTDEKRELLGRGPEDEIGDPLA

## CN1CCN(CCCN2c3ccccc3Sc3ccc(C(F)(F)F)cc32)CC1 [trifluoperazine, reference compound]
MEF cells [1]; MEF cells, pH 7.4
  Degradation of cell surface-bound ^125I-α2M* or ^125I-TGF-β1: trifluoperazine-inhibitable degradation
[2]
  Depletion of cell surface α2M* receptors: ~50%
Mv1Lu cells [3]
  Degradation of cell surface-bound ^125I-TGF-β1 or ^125I-α2M*: completely blocked; also recorded: completely inhibits
Acidic pH binding sites [4]; pH 5.5, verapamil and W-5 at 100 μM
  Inhibition of ^125I-α2M* binding to cells: most potent inhibitors
LRP-1
  IC50: 25000 to 30000 nM

## TGF-β1: human transforming growth factor-β1
PEA-C11 cells [5]
  Inhibition of cell growth: ~70%
32D/IR/IRS-2 cells
  Growth inhibitory response (DNA synthesis): potent growth inhibitory response
Mv1Lu cells [6]
  Inhibition of cell growth: 90-100%
Acidic pH binding sites [7]
  pH of maximal binding: 5
Acidic pH binding sites [4]
  pH of maximal binding: 5
32D/IRS-1 cells
  Growth inhibitory response (DNA synthesis): potent growth inhibitory response
PEA-C11 cells [8]
  Inhibition of DNA synthesis: ~70%
MEF cells [9]
  Inhibition of cell growth: 30-40%
H1299/vector cells [10]
  Effect on DNA synthesis: acted as mitogens or growth stimulators
PEA-13 cells [11]
  Stimulation of DNA synthesis: ≤ 20%
IRS-2 [12]
  Induction of specific dephosphorylation (mobility change) of 32P-labeled IRS-2: inability
H1299/LRP cells [13]
  Effect on cell growth: inhibited
IRS-2 [14]; TGF-β1 alone
  32P-labeled phosphorylation of IRS-2: capable of stimulating
IRS-2 [14]; TGF-β1 up to 400 pM
  Dephosphorylation of IRS-2: did not induce dephosphorylation
Mv1Lu cells [15]; TGF-β1 0.5 pM
  Inhibition of DNA synthesis: ~75%
Mv1Lu cells [15]; TGF-β1 20 pM
  Inhibition of DNA synthesis: 90-100%
MEF cells [16]
  Inhibition of DNA synthesis: 30-40%
[17]
  Inhibition of DNA synthesis: minimally or not at all
H1299/LRP cells [18]
  Effect on DNA synthesis: inhibited
H1299/vector cells [19]
  Effect on cell growth: acted as mitogens or growth stimulators
LRP-1/TβR-V
  Kd: 0.05 to 0.4 nM
PEA-13 cells [20]
  Stimulation of cell growth: ≤ 20%
Acidic pH binding sites [21]
  pH of optimal/maximal binding: 5

## α2M*: α2M activated by methylamine
MEF cells [1]; pH 6.0, 1 hr at 37° C.
  Cell surface-bound ligand internalized and degraded: ~70%
MEF cells [1]; pH 7.4, 1 hr
  Cell surface-bound ligand internalized and degraded: more than 90%
[22]; 0.1 nM 125I-TGF-β1, […] 0° C.
  ^125I-TGF-β1 binding to purified TβR-V: blocked
[22]; 10 nM 125I-IGFBP-3, […] 0° C.
  ^125I-IGFBP-3 binding to purified TβR-V: did not inhibit
PEA-13 cells [23]
  Cell surface-bound ligand internalized and degraded: ~70%
Acidic pH binding sites [7]
  pH of maximal binding: 5
Acidic pH binding sites [7]; acidic pH, read-out: IC50, inhibition of ^125I-α2M* binding
  IC50: ~120 nM
Acidic pH binding sites [4]
  pH of maximal binding: 5
LRP-1/TβR-V
  Kd: ~0.075 nM
Acidic pH binding sites [21]; pH 5
  Number of binding sites (Scatchard plot): ~1×10^6 sites/cell
  Saturating concentration of binding: ~120 nM
Acidic pH binding sites [21]; pH 5, read-out: Apparent Kd (Scatchard plot)
  Kd: ~51 nM
Acidic pH binding sites [21]
  pH of optimal/maximal binding: 5
